Values quoted from earlier work, collected in PubChem BioAssay AID1259409 (Chemical Carcinogenesis Research Information System (CCRIS), 2018).

Test system: rodent chemically induced tumor inhibition, incidence and multiplicity
Test: CCRIS tumor inhibitor studies
Settings: Dose [Inhibitor]: 0, Route [Inhibitor]: ORAL, Species: RAT, Promoter: NONE USED

Compound: O=c1oc2c(O)c(O)cc3c(=O)oc4c(O)c(O)cc1c4c23
- tumour outcome (control, treated, inhibition, significance) (Carcinogen: DIETHYLNITROSAMINE, 55-18-5, N-METHYLNITROSOUREA, 684-93-5, 1,2-DIMETHYLHYDRAZINE, 540-73-8, N-BUTYL-N-(4-HYDROXYB, Carcinogen: DIETHYLNITROSAMINE, 55-18-5, N-METHYLNITROSOUREA, 684-93-5, 1,2-DIMETHYLHYDRAZINE, 540-73-8, N-BUTYL-N-(4-HYDROXYB, 1% IN DIET FOR 4 WK BEGINNING 1 DAY PRIOR TO CARCINOGEN TREATMENT (STUDY DURATION: 36 WK), Strain/Sex: F344/MALE, Target Tissue: Type of Lesion: SMALL INTESTINE: CARCINOMA, Dose [Carcinogen]: 100 MG/KG DEN ONCE, 20 MG/KG MNU 4 TIMES, 40 MG/KG DMH 4 TIMES, 0.05% BBN IN DRINKING WATER FOR 2 WK, 0.1% DHPN IN D, Dose [Carcinogen]: 100 MG/KG DEN ONCE, 20 MG/KG MNU 4 TIMES, 40 MG/KG DMH 4 TIMES, 0.05% BBN IN DRINKING WATER FOR 2 WK, 0.1% DHPN IN D): 5/14 (36%), 0/12 (0%), 100%, p<0.05
- tumour outcome (control, treated, inhibition, significance) (Carcinogen: DIETHYLNITROSAMINE, 55-18-5, N-METHYLNITROSOUREA, 684-93-5, 1,2-DIMETHYLHYDRAZINE, 540-73-8, N-BUTYL-N-(4-HYDROXYB, Carcinogen: DIETHYLNITROSAMINE, 55-18-5, N-METHYLNITROSOUREA, 684-93-5, 1,2-DIMETHYLHYDRAZINE, 540-73-8, N-BUTYL-N-(4-HYDROXYB, 1% IN DIET FOR 4 WK BEGINNING 1 DAY PROIR TO CARCINOGEN TREATMENT (STUDY DURATION: 36 WK), Strain/Sex: F344/MALE, Target Tissue: Type of Lesion: LUNG: ADENOMA, Dose [Carcinogen]: 100 MG/KG DEN ONCE, 20 MG/KG MNU 4 TIMES, 40 MG/KG DMH 4 TIMES, 0.05% BBN IN DRINKING WATER FOR 2 WK, 0.1% DHPN IN D, Dose [Carcinogen]: 100 MG/KG DEN ONCE, 20 MG/KG MNU 4 TIMES, 40 MG/KG DMH 4 TIMES, 0.05% BBN IN DRINKING WATER FOR 2 WK, 0.1% DHPN IN D): 6/14 (43%), 1/12 (8%), 81%, not significant
- tumour outcome (control, treated, inhibition, significance) (Carcinogen: DIETHYLNITROSAMINE, 55-18-5, N-METHYLNITROSOUREA, 684-93-5, 1,2-DIMETHYLHYDRAZINE, 540-73-8, N-BUTYL-N-(4-HYDROXYB, Carcinogen: DIETHYLNITROSAMINE, 55-18-5, N-METHYLNITROSOUREA, 684-93-5, 1,2-DIMETHYLHYDRAZINE, 540-73-8, N-BUTYL-N-(4-HYDROXYB, 1% IN DIET FOR 32 WK BEGINNING POST CARCINOGEN TREATMENT (STUDY DURATION: 36 WK), Strain/Sex: F344/MALE, Target Tissue: Type of Lesion: KIDNEY: ADENOMA, Dose [Carcinogen]: 100 MG/KG DEN ONCE, 20 MG/KG MNU 4 TIMES, 40 MG/KG DMH 4 TIMES, 0.05% BBN IN DRINKING WATER FOR 2 WK, 0.1% DHPN IN D, Dose [Carcinogen]: 100 MG/KG DEN ONCE, 20 MG/KG MNU 4 TIMES, 40 MG/KG DMH 4 TIMES, 0.05% BBN IN DRINKING WATER FOR 2 WK, 0.1% DHPN IN D): 4/14 (29%), 2/13 (15%), 48%, not significant
- tumour outcome (control, treated, inhibition, significance) (Carcinogen: DIETHYLNITROSAMINE, 55-18-5, N-METHYLNITROSOUREA, 684-93-5, 1,2-DIMETHYLHYDRAZINE, 540-73-8, N-BUTYL-N-(4-HYDROXYB, Carcinogen: DIETHYLNITROSAMINE, 55-18-5, N-METHYLNITROSOUREA, 684-93-5, 1,2-DIMETHYLHYDRAZINE, 540-73-8, N-BUTYL-N-(4-HYDROXYB, 1% IN DIET FOR 32 WK BEGINNING POST CARCINOGEN TREATMENT (STUDY DURATION: 36 WK), Strain/Sex: F344/MALE, Target Tissue: Type of Lesion: KIDNEY: NEPHROBLASTOMA, Dose [Carcinogen]: 100 MG/KG DEN ONCE, 20 MG/KG MNU 4 TIMES, 40 MG/KG DMH 4 TIMES, 0.05% BBN IN DRINKING WATER FOR 2 WK, 0.1% DHPN IN D, Dose [Carcinogen]: 100 MG/KG DEN ONCE, 20 MG/KG MNU 4 TIMES, 40 MG/KG DMH 4 TIMES, 0.05% BBN IN DRINKING WATER FOR 2 WK, 0.1% DHPN IN D): 7/14 (50%), 5/13 (38%), 24%, not significant
- tumour outcome (control, treated, inhibition, significance) (Carcinogen: DIETHYLNITROSAMINE, 55-18-5, N-METHYLNITROSOUREA, 684-93-5, 1,2-DIMETHYLHYDRAZINE, 540-73-8, N-BUTYL-N-(4-HYDROXYB, Carcinogen: DIETHYLNITROSAMINE, 55-18-5, N-METHYLNITROSOUREA, 684-93-5, 1,2-DIMETHYLHYDRAZINE, 540-73-8, N-BUTYL-N-(4-HYDROXYB, 1% IN DIET FOR 32 WK BEGINNING POST CARCINOGEN TREATMENT (STUDY DURATION: 36 WK), Strain/Sex: F344/MALE, Target Tissue: Type of Lesion: LARGE INTESTINE: CARCINOMA, Dose [Carcinogen]: 100 MG/KG DEN ONCE, 20 MG/KG MNU 4 TIMES, 40 MG/KG DMH 4 TIMES, 0.05% BBN IN DRINKING WATER FOR 2 WK, 0.1% DHPN IN D, Dose [Carcinogen]: 100 MG/KG DEN ONCE, 20 MG/KG MNU 4 TIMES, 40 MG/KG DMH 4 TIMES, 0.05% BBN IN DRINKING WATER FOR 2 WK, 0.1% DHPN IN D): 3/14 (21%), 6/12 (50%), -138%, not significant
- tumour outcome (control, treated, inhibition, significance) (Carcinogen: DIETHYLNITROSAMINE, 55-18-5, N-METHYLNITROSOUREA, 684-93-5, 1,2-DIMETHYLHYDRAZINE, 540-73-8, N-BUTYL-N-(4-HYDROXYB, Carcinogen: DIETHYLNITROSAMINE, 55-18-5, N-METHYLNITROSOUREA, 684-93-5, 1,2-DIMETHYLHYDRAZINE, 540-73-8, N-BUTYL-N-(4-HYDROXYB, 1% IN DIET FOR 32 WK BEGINNING POST CARCINOGEN TREATMENT (STUDY DURATION: 36 WK), Strain/Sex: F344/MALE, Target Tissue: Type of Lesion: SMALL INTESTINE: ADENOMA, Dose [Carcinogen]: 100 MG/KG DEN ONCE, 20 MG/KG MNU 4 TIMES, 40 MG/KG DMH 4 TIMES, 0.05% BBN IN DRINKING WATER FOR 2 WK, 0.1% DHPN IN D, Dose [Carcinogen]: 100 MG/KG DEN ONCE, 20 MG/KG MNU 4 TIMES, 40 MG/KG DMH 4 TIMES, 0.05% BBN IN DRINKING WATER FOR 2 WK, 0.1% DHPN IN D): 6/14 (43%), 0/12 (0%), 100%, < p<0.05
- tumour outcome (control, treated, inhibition, significance) (Carcinogen: DIETHYLNITROSAMINE, 55-18-5, N-METHYLNITROSOUREA, 684-93-5, 1,2-DIMETHYLHYDRAZINE, 540-73-8, N-BUTYL-N-(4-HYDROXYB, Carcinogen: DIETHYLNITROSAMINE, 55-18-5, N-METHYLNITROSOUREA, 684-93-5, 1,2-DIMETHYLHYDRAZINE, 540-73-8, N-BUTYL-N-(4-HYDROXYB, 1% IN DIET FOR 32 WK BEGINNING POST CARCINOGEN TREATMENT (STUDY DURATION: 36 WK), Strain/Sex: F344/MALE, Target Tissue: Type of Lesion: SMALL INTESTINE: CARCINOMA, Dose [Carcinogen]: 100 MG/KG DEN ONCE, 20 MG/KG MNU 4 TIMES, 40 MG/KG DMH 4 TIMES, 0.05% BBN IN DRINKING WATER FOR 2 WK, 0.1% DHPN IN D, Dose [Carcinogen]: 100 MG/KG DEN ONCE, 20 MG/KG MNU 4 TIMES, 40 MG/KG DMH 4 TIMES, 0.05% BBN IN DRINKING WATER FOR 2 WK, 0.1% DHPN IN D): 5/14 (36%), 1/12 (8%), 78%, not significant
- tumour outcome (control, treated, inhibition, significance) (Carcinogen: DIETHYLNITROSAMINE, 55-18-5, N-METHYLNITROSOUREA, 684-93-5, 1,2-DIMETHYLHYDRAZINE, 540-73-8, N-BUTYL-N-(4-HYDROXYBU, Carcinogen: DIETHYLNITROSAMINE, 55-18-5, N-METHYLNITROSOUREA, 684-93-5, 1,2-DIMETHYLHYDRAZINE, 540-73-8, N-BUTYL-N-(4-HYDROXYBU, 1% IN DIET FOR 32 WK BEGINNING POST CARCINOGEN TREATMENT (STUDY DURATION: 36 WK), Strain/Sex: F344/MALE, Target Tissue: Type of Lesion: LARGE INTESTINE: ADENOMA, Dose [Carcinogen]: 100 MG/KG DEN ONCE, 20 MG/KG MNU 4 TIMES, 40 MG/KG DMH 4 TIMES, 0.05% BBN IN DRINKING WATER FOR 2 WK, 0.1% DHPN IN D, Dose [Carcinogen]: 100 MG/KG DEN ONCE, 20 MG/KG MNU 4 TIMES, 40 MG/KG DMH 4 TIMES, 0.05% BBN IN DRINKING WATER FOR 2 WK, 0.1% DHPN IN D): 7/14 (50%), 3/12 (25%), 50%, not significant
- tumour outcome (control, treated, inhibition, significance) (Carcinogen: DIETHYLNITROSAMINE, 55-18-5, N-METHYLNITROSOUREA, 684-93-5, 1,2-DIMETHYLHYDRAZINE, 540-73-8, N-BUTYL-N-(4-HYDROXYBU, Carcinogen: DIETHYLNITROSAMINE, 55-18-5, N-METHYLNITROSOUREA, 684-93-5, 1,2-DIMETHYLHYDRAZINE, 540-73-8, N-BUTYL-N-(4-HYDROXYBU, 1% IN DIET FOR 32 WK BEGINNING POST CARCINOGEN TREATMENT (STUDY DURATION: 36 WK), Strain/Sex: F344/MALE, Target Tissue: Type of Lesion: LUNG: ADENOMA, Dose [Carcinogen]: 100 MG/KG DEN ONCE, 20 MG/KG MNU 4 TIMES, 40 MG/KG DMH 4 TIMES, 0.05% BBN IN DRINKING WATER FOR 2 WK, 0.1% IN DRINKI, Dose [Carcinogen]: 100 MG/KG DEN ONCE, 20 MG/KG MNU 4 TIMES, 40 MG/KG DMH 4 TIMES, 0.05% BBN IN DRINKING WATER FOR 2 WK, 0.1% IN DRINKI): 6/14 (43%), 1/13 (8%), 81%, p<0.05
- tumour outcome (control, treated, inhibition, significance) (Carcinogen: N-NITROQUINOLINE-1-OXIDE, 56-57-5, 400 PPM IN DIET FOR 7 WK BEGINNING 1 WK PRIOR TO START OF CARCINOGEN TREATMENT (STUDY DURATION: 32 WK), Strain/Sex: F344\MALE, Target Tissue: Type of Lesion: TONGUE: CARCINOMA, Dose [Carcinogen]: 20 PPM IN DRINKING WATER FOR 5 WK): 9/15 (60%), 0/15 (0%), 100%, p=0.00035
- outcome (Carcinogen: N-NITROSOBENZYLMETHYLAMINE, 937-40-6, 0.4 G/KG IN DIET BEGINNING 2 WK PRIOR TO FIRST CARCINOGEN DOSE (STUDY DURATION: 20 WK), Strain/Sex: F-344/MALE, Target Tissue: Type of Lesion: ESOPHAGUS: TUMOR, Dose [Carcinogen]: 0.5, 1.25 MG/KG 1/WK FOR 18 WK): 15/15 (100%), 14/15 (93%), 7%, not calculated (low dose carcinogen); 15/15 (100%
- tumour outcome (control, treated, inhibition, significance) (Carcinogen: N-NITROSOBENZYLMETHYLAMINE, 937-40-6, 0.4 G/KG IN DIET BEGINNING 2 WK PRIOR TO FIRST CARCINOGEN DOSE (STUDY DURATION: 27 WK), Strain/Sex: F-344/MALE, Target Tissue: Type of Lesion: ESOPHAGUS: TUMOR, Dose [Carcinogen]: 0.5, 1.25 MG/KG 1/WK FOR 18 WK): 15/15 (100%), 15/15 (100%), 0%, not calculated (low dose carcinogen); 15/15 (100
